Assay results published in US20230416243A1, “Process for Preparing Heterocyclic Methanone Compounds and AZA-Bicyclo Intermediates Thereof” (ACTINOGEN MEDICAL LIMITED, priority 2020, published 2023).

Assay: Solubility test in water
Assay type: physicochemical
Conditions: water at pH 4
Protocol: A saponification of A4 in aqueous conditions was conducted.

O=C(O)c1csc(-c2cn[nH]c2)c1 [Compound A5]
Solubility in water: soluble
